Literature values, collected in patent US7276641B2, “External plaster containing 4-biphenylacetic acid” (Teikoku Seiyaku Co., Ltd., priority 2000, dated 2007).
Read-outs that look alike come from different tables or passages of the source.

solubility (aqueous plaster with diisopropanolamine as solubilizer): not more than 11%
solubility (crotamiton as solubilizer): at most 7%
solubility (in acetone, ethanol, glacial acetic acid, and ether): less soluble
solubility (in dimethylacetamide): readily soluble
solubility (in polyols, glycols, and esters): hardly soluble
solubility (in water): hardly soluble
Compound: O=C(O)Cc1ccc(-c2ccccc2)cc1 [BPAA, 4-biphenylyl acetic acid]
